Experimental data: PMC6544338, “Comparative biophysical characterization: A screening tool for acetylcholinesterase inhibitors” (PLoS ONE, 2019)
Like-named read-outs stand apart in the source and are kept apart here.

Experiments:
immobilized AChE [1] = target: T1, immobilized AChE (Electrophorus electricus, UniProt O42275); test: biochemical; type: binding; settings: for Kd / Ka1 / Kd1: 25°C
T1 construct: purchased Sigma (St. Louis, MO, USA)
Procedure: (§1) The protocol was followed with some modifications for enzyme immobilization, scouting and screening. SPR interactions were performed using a Biacore X100 optical biosensor (GE Healthcare Life Sciences, Bangalore, India) at 25°C. SPR analysis was carried out in PBS (200 mM, pH 7.7) from the analyte stock solutions, working solutions were diluted before passing on to the sensor surface. Data collection was done with the help of Biacore control software ver 2.0.2 Sets of experiments were carried out by monitoring change in the refractive index as a function of time under constant flow conditions. The relative amount of inhibitor bound to the AChE was determined by measuring the net increase in the refractive index over time compared to buffer as a control. During each run, there is an inline subtraction of the reference surface. Change is reported regarding response units (RU). The surface was washed with 5 cycles of running buffer (PBS) before next analytes.
(§2) As per pH scouting studies, AChE enzyme (100μg) was dissolved in 100 mM sodium acetate buffer pH 4.5 and was immobilized to the CM5 sensor chip by using the amine coupling method. The flow rate was kept constant during immobilization at 10 μlmin^-1, the surface of flow cell was activated by 1:1 mixture of 100 mM EDC and 100 mM NHS (both dissolved in water) for 7 min. AChE was injected for 7 min, and residual activated carboxymethyl groups were blocked on the sensor surface by 7 min injection of 1M ethanolamine, pH 8.5. In this particular study, flow cell 1 was blank immobilized (without protein) and used as a reference. Inline and double referencing was done for the buffer RU compensation.
(§3) Here the model describes this competitive situation and returns two sets of rate constants, one for each reaction taking into consideration two different analytes. The same buffer was used as running buffer. The constant flow rate was maintained throughout the kinetics (45 μlmin^-1), contact time and dissociation time was kept at 120 second (s). 10 mM glycine pH 3.0 for the time period of 30 s was used for regeneration. The experiments were carried at different concentrations of inhibitors.
(§4) The analysis of data was carried out with X100 evaluation software ver 2.0.2 and fitted to two state fit for individual molecules and for competitive experiments a heterogeneous analyte binding model.

AChE [2] = target: T2, AChE (Electrophorus electricus, UniProt O42275); test: Far-UV circular dichroism of AChE with small molecules (secondary structure composition); settings: single molecule; for Turns of AChE in presence of the molecule: AChE alone 0; for α helix of AChE in presence of the molecule: AChE alone 3.6±0.012; for Random of AChE in presence of the molecule: AChE alone 44.2±0.46; for β sheets of AChE in presence of the molecule: AChE alone 52.3±0.6
T2 construct: purchased Sigma (St. Louis, MO, USA)
Procedure: Protein solutions 0.5 milligram per milliliter (mgml^-1) was prepared in 10 mM PBS at pH 7.7. Scans were performed at room temperature using 0.1 cm path length quartz cuvette with 8 s differential integration time at a scan rate of 100 nano meter per minute (nm min^-1). The CD spectrum of AChE enzyme individually and with different small molecules, also in combination was recorded. All spectra resulted from averaging three scans were corrected from the buffer blank. Results were expressed as molar ellipticity (°cm^2 dmol^-1) based on a mean amino acid residue weight (MRW) 110 Da for AChE. The molar ellipticity was determined as [θ obs] = {100 × (MRW) × θobs/cl}, where θ is the observed ellipticity in degrees at a given wavelength, c is the protein concentration in mgml^-1, and l is the path length in cm.
The relative percentages of the secondary structure elements were estimated in triplicates using Manager Suite software.

AChE [3] = settings: read-out: IC50; cited from earlier work
[4] = target: T3, acetylcholinesterase from Electrophorus electricus (Electric eel) (Electrophorus electricus, UniProt O42275); test: Inhibition assay for acetylcholinesterase activity (modified Ellman, ATCI/DTNB, 412 nm); type: biochemical
T3 construct: purchased Sigma (St. Louis, MO, USA)
Procedure: The assay was performed with some modifications of Ellman et al (1961). […] The hydrolysis was monitored by the formation of yellow color (5-thio-2-nitrobenzoate anion) and the absorbance was measured at 412 nm by using spectrophotometer (UV-1800, Shimadzu, Japan).
The inhibitory activity assay was carried out with slight modifications. […] The inhibitory percentage of AChE was calculated as follows:
%inhibition = 100[A − B] − [C − D]/[A − B]
A is the OD without test substance, B is the OD without test substance and AChE, C is the OD with the test substance, D is the OD at 412 nm with the test substance and without AChE.
The relative percentage inhibition were estimated in triplicates and values were expressed as mean ± SEM (n = 3).

AChE [5] = target: T2, AChE; test: Fluorescence spectral studies of AChE incubated with molecules; settings: excitation 365 nm, control emission maxima […] nm, molecules at IC50 concentration, 10 min
Procedure: The fluorescence intensities were recorded using 0.5 mgml^-1 protein concentration with an excitation wavelength of 365 nm and an emission wavelength of 400–700 nm with slit widths of 20 nm using MY14410002 fluorescence spectrophotometer (Agilent Technologies, USA) at 25°C. Protein solutions of 0.5 mgml^-1 were prepared in 10 mM PBS at pH 7.7. Scans were performed at room temperature using a 1 cm path length quartz cuvette with 1 s differential integration time at a scan rate of 600 nm min^-1. […] The subsequent changes in fluorescence were measured at this wavelength.
Fig 21 a) Intrinsic fluorescence spectra of the AChE incubated with molecules. […] Scans were performed at 37°C using a 1 cm path length quartz cuvette with 1 s differential integration time at a scan rate of 600 nm min^-1. The excitation wavelength was 365 nm and emission wavelength was in the range of 400–700 nm. b) Intrinsic fluorescence spectra of the AChE incubated with molecules. […] Scans were performed at 37° C using a 1 cm path length quartz cuvette with 1 s differential integration time at a scan rate of 600 nm min^-1. The excitation wavelength was 365 nm and the emission wavelength was in the range of 400–700 nm.

immobilized AChE [6] = target: T1, immobilized AChE; test: biochemical; type: binding; settings: for Kd: read-out: Molecule 1 KD
Procedure: as §1, §2, §3, §4
Likewise, competitive experiments between different pairs was run by mixing 1:1 ratio of molecules and was fit to heterogeneous analyte model were studied. These experiments are helpful for determining the kinetics of a small molecule analyte in competition with other. Response contributions from both analytes are taken into account by considering molecular weight and concentrations of analytes. For competition binding experiments, pairing was done based on substrate-inhibitor and inhibitor-inhibitor interactions. […] Finally, naturally occurring crocin was also tested due to reports in the literature as a brain tonic for the Alzheimer's.

[7] = tested on: AChE activity of the central nervous tissue of L.acuminata; settings: 0.04 mM tannic acid; cited from earlier work
[8] = affinity fit, read-out: KD Affinity
[9] = pair tannic acid (molecule 1) and ATCI (molecule 2), 1:1

T2 sequence (O42275 24-633): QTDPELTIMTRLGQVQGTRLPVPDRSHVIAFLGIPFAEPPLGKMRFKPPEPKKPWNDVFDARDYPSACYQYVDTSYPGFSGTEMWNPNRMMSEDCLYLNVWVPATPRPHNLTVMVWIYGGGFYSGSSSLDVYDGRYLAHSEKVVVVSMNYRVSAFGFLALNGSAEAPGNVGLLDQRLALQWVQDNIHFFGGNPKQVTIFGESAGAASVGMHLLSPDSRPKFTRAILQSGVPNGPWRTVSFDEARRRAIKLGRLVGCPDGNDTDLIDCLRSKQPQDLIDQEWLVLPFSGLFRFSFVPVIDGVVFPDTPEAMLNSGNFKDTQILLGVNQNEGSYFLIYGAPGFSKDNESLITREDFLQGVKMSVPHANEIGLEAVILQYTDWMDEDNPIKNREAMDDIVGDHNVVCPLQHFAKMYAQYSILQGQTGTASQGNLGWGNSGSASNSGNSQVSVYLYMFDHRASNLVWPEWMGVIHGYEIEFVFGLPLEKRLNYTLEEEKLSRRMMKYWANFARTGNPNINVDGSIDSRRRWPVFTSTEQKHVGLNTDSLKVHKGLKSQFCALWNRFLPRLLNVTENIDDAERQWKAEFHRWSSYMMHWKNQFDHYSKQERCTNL
T1 sequence (O42275 24-633): as above
T3 sequence (O42275 24-633): as above

Compound	Ka2 (immobilized AChE [1])	Kd (immobilized AChE [1]; [8]) [µM]	Ka1 (immobilized AChE [1]; two-state model) [M⁻¹ s⁻¹]	Kd1 (immobilized AChE [1]; two-state model) [s⁻¹]	Turns of AChE in presence of the molecule (AChE [2]) [%]	α helix of AChE in presence of the molecule (AChE [2]) [%]	Random of AChE in presence of the molecule (AChE [2]) [%]	β sheets of AChE in presence of the molecule (AChE [2]) [%]	change in fluorescence emission of AChE compared to control enzyme (AChE [5])	also measured
Oc1cccc(O)c1O [Pyrogallol, pyrogallol]	0.01979±3.7×10^−4 1/s	119	200.1 ± 3.3	0.05082 ± 0.0015	0	0	49.2±0.68	50.8±0.73	quenching	Kd2 (immobilized AChE [1]): 0.002793±3.2×10^−5 1/s; Kd (immobilized AChE [1]; two-state model, read-out: KD Kinetics): 31.4 µM; IC50 (AChE [3]): 10.2 µM; IC50 [4]: 3.8 ± 0.1 mM
tannic acid	0.1039±2.2×10^−4 1/s	11.4	1400 ± 47	0.03423 ± 0.017	14.8±0.08	5.1±0.039	49.5±0.70	30.6±0.19	redshift	Molecule 1 ka1 (immobilized AChE [6]): 231.1 ± 3.3 M⁻¹ s⁻¹; Molecule 1 kd1 (immobilized AChE [6]): 2.685e-05 ± 2.9e-08 s⁻¹; Molecule 1 ka1 (immobilized AChE [6]; [9]): 1.687e-05 ± 3.7e+06 M⁻¹ s⁻¹; Molecule 1 kd1 (immobilized AChE [6]; [9]): 0.01266 ± 0.028 s⁻¹; Kd (immobilized AChE [6]; [9]): 75.1 nM; Kd (immobilized AChE [6]): 116 nM; reduced AChE activity [7]: 37%; IC50 ([4]; […] ATCI, PBS 200 mM pH 7.7, 37°C, mean ± SEM (n = 3), read-out: IC50): 0.027 ± 0.002 mM
